SMILES strings stand for the structures. Where “and” joins values, the source holds several entries; their conditions need not be identical. Equal values may be shown once.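 Cells were grown in 96-well plates and exposed to each compound for 48 hours at five concentrations; endpoints were interpolated linearly between bracketing concentrations, or set to the highest concentration if not reached. Here, GI50 denotes the concentration required for 50% inhibition of growth. Definition used: TGI = concentration required for complete inhibition of growth.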 Where only a bound is given, the exact number is not on record here.

Some test systems named below: U251 CNS; 786-0 renal; HOP-62 NSCLC; M14 melanoma; SK-MEL-28 melanoma; SNB-19 CNS; NCI-H226 lung; SF-268 CNS.
What all share (assay): growth of human tumour cells (NCI), 48 h

In the case of `Cc1cc(I)cc(CN(C)CCCN2CCSCC2)c1O`, the GI50 was 33.9 µM in the test with U251 CNS; 21.2 µM in the test on 786-0 renal; 18.4 µM in the test with HOP-62 NSCLC; 17.3 µM in the test with M14 melanoma; 27.9 µM in the test on SK-MEL-28 melanoma; 25.6 µM with SNB-19 CNS. The GI50 in the test with NCI-H226 lung is 39.5 µM; in the test on SF-268 CNS it was 28.4 µM. Further, the TGI in the test on U251 CNS amounted to 95.6 µM; with 786-0 renal, 53.3 µM; in the test on HOP-62 NSCLC it was 41.9 µM; in the test on M14 melanoma, 33.2 µM; in the test on SK-MEL-28 melanoma it was 87.6 µM; in the test on SNB-19 CNS, 55.6 µM. Besides, the TGI in the test with NCI-H226 lung and in the test with SF-268 CNS was greater than 100 µM throughout.

In the case of `CCC(Sc1cc(Cl)c(C)cc1S(=O)(=O)Nc1nc(N)nc(N(C)C)n1)C(=O)O` (centres undefined), the TGI in the test on U251 CNS, with 786-0 renal, in the test with HOP-62 NSCLC, with M14 melanoma, in the test with SK-MEL-28 melanoma and with SNB-19 CNS was greater than 10 µM each time. Besides, the TGI in the test with NCI-H226 lung and in the test with SF-268 CNS was greater than 10 µM in each case.

As to `COc1cc(OC)cc(C2CC(=O)Nc3c2c(C)nn3-c2nc3ccccc3[nH]2)c1` (centres undefined), the GI50 in the test on U251 CNS is 2.99 µM; in the test on 786-0 renal, 2.84 µM; with HOP-62 NSCLC, 2.65 µM; with M14 melanoma, 2.46 µM; with SK-MEL-28 melanoma, 3.64 µM; in the test on SNB-19 CNS, 4.13 µM. Further, the GI50 with NCI-H226 lung was 2.52 µM; in the test on SF-268 CNS, 3.57 µM. Moreover, the TGI in the test on U251 CNS was 9.57 µM; with 786-0 renal it was 9.89 µM; with HOP-62 NSCLC, 6.62 µM; in the test with M14 melanoma, 7.27 µM; with SK-MEL-28 melanoma, 70 µM; with SNB-19 CNS, greater than 100 µM. The TGI was 6.38 µM in the test on NCI-H226 lung and greater than 100 µM in the test on SF-268 CNS.

With `CC1=C2[C@@H](CC1)[C@]1(C)O[C@@](C3CCCCC3)(C[C@H]1OC(=O)CO)[C@H]2OC(=O)/C=C/c1ccccc1`, the GI50 with U251 CNS was 7.72 µM; with 786-0 renal it was 1.48 µM; with HOP-62 NSCLC, 12 µM; with M14 melanoma, 8.9 µM; in the test on SK-MEL-28 melanoma, 9.53 µM; with SNB-19 CNS, 13.1 µM. For the same molecule, the GI50 is 7.58 µM in the test on NCI-H226 lung and 1.02 µM in the test on SF-268 CNS. The TGI with U251 CNS was found to be 20.5 µM; in the test on 786-0 renal, 17.6 µM; in the test on HOP-62 NSCLC, 25.5 µM; with M14 melanoma it was 26.8 µM; with SK-MEL-28 melanoma, 27.1 µM; with SNB-19 CNS, 31.4 µM. Besides, the TGI in the test on NCI-H226 lung stood at 23.5 µM; in the test with SF-268 CNS it was 17.6 µM.

For the molecule `CO[C@@H]1/C=C\C=C(/C)C(=O)NC2=CC(=O)C(NCCN(C)C)=C(C[C@@H](C)C[C@@H](OC)[C@@H](O)[C@H](C)/C=C(\C)[C@H]1OC(N)=O)C2=O`, the GI50 in the test on U251 CNS was 0.0144 µM; with 786-0 renal, 0.0589 µM; with HOP-62 NSCLC, 0.0859 µM; in the test with M14 melanoma, 0.0125 µM; in the test on SF-268 CNS, 1.19 µM and 0.209 µM. The TGI with U251 CNS is 8.18 µM; in the test with 786-0 renal it was 15 µM and 26.9 µM; with HOP-62 NSCLC, 17 µM and 19.1 µM; in the test on M14 melanoma, 6.51 µM and 4.99 µM; in the test on SK-MEL-28 melanoma it was > 100 µM and 32.4 µM; in the test on SNB-19 CNS it was 7.99 µM and 15.5 µM. Besides, the TGI was 31.2 µM and 12.4 µM in the test on NCI-H226 lung; 16.5 µM and 16.2 µM in the test with SF-268 CNS.

For `CN(C)C=Nc1cccc2nsnc12`, the TGI in the test with U251 CNS, in the test with 786-0 renal, with HOP-62 NSCLC, with M14 melanoma, in the test on SK-MEL-28 melanoma and in the test with SNB-19 CNS was greater than 100 µM in each case. Further, the TGI in the test with NCI-H226 lung and in the test on SF-268 CNS was greater than 100 µM throughout.

`O=C1c2ccccc2-c2c1c1ccccc1c(=O)n2CCCNCCCn1ccnc1`: the GI50 was 0.285 µM in the test on U251 CNS; 0.352 µM in the test on 786-0 renal; 0.29 µM with HOP-62 NSCLC; 0.51 µM in the test on M14 melanoma; 2.94 µM in the test with SK-MEL-28 melanoma; 1.47 µM with SNB-19 CNS. Further, the GI50 in the test on NCI-H226 lung is 0.186 µM; in the test with SF-268 CNS, 3.12 µM. The TGI came out at 1.42 µM with U251 CNS; 2.24 µM with 786-0 renal; 1.13 µM with HOP-62 NSCLC; 1.13 µM in the test on M14 melanoma; 8.92 µM in the test on SK-MEL-28 melanoma; 13.1 µM with SNB-19 CNS. For the same molecule, the values for the TGI in the test with NCI-H226 lung and with SF-268 CNS were 0.436 µM and 23.2 µM, respectively.

In the case of `CC12OC(c3ccccc3)=CC(c3ccc(Cl)cc3)=C1C(c1ccccc1)=CC2=O` (centres undefined), the GI50 in the test with U251 CNS was 33.1 µM; in the test with 786-0 renal it was 94.7 µM; in the test on HOP-62 NSCLC it was greater than 100 µM; in the test on M14 melanoma it was 28.2 µM; with SK-MEL-28 melanoma, 66.5 µM; in the test with SNB-19 CNS it was greater than 100 µM. Moreover, the GI50 was 68.1 µM with NCI-H226 lung and greater than 100 µM in the test with SF-268 CNS. Further, the TGI with U251 CNS was greater than 100 µM; in the test with 786-0 renal it was greater than 100 µM; in the test on HOP-62 NSCLC it was greater than 100 µM; with M14 melanoma, 83 µM; in the test with SK-MEL-28 melanoma, greater than 100 µM; with SNB-19 CNS it was greater than 100 µM. In addition, the TGI with NCI-H226 lung and with SF-268 CNS was greater than 100 µM each time.

For the origin of these results see PubChem BioAssay (NCI).
